Experimental data reported in patent publication US10334829B2, “IMiD screening methods IMiD-sensitive cells with mutant CRBN” (THE BROAD INSTITUTE, INC., priority 2013, dated 2019).
“Also recorded” adds a separate entry of the source. Blank lines part the entries; values can stand above or below the molecule they belong to. Residues, ends and D or L forms follow the SMILES beside them. *: point of attachment. Cbz = O=C(OCc1ccccc1)*

Assays:
CSNK1A1 [1] = biological target: T1, CSNK1A1 (Homo sapiens, UniProt P48729+Q96SW2); test: Immunoblot of CSNK1A1 (CK1α) protein in human cell lines; format: cell-based; settings: KG-1 cells, 6 hours
T1 construct: endogenous in cells; host or cells: KG-1
T1 sequence (P48729 whole entry): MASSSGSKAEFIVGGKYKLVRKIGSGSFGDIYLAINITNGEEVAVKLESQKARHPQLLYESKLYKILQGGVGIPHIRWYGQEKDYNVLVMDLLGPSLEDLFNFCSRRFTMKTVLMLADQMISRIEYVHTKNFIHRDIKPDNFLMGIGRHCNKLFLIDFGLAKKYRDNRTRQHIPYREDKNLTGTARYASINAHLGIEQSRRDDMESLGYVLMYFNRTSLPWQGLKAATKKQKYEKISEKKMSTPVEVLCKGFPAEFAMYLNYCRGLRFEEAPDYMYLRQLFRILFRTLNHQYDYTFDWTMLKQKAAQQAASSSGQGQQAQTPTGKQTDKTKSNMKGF
T1 sequence (Q96SW2 whole entry): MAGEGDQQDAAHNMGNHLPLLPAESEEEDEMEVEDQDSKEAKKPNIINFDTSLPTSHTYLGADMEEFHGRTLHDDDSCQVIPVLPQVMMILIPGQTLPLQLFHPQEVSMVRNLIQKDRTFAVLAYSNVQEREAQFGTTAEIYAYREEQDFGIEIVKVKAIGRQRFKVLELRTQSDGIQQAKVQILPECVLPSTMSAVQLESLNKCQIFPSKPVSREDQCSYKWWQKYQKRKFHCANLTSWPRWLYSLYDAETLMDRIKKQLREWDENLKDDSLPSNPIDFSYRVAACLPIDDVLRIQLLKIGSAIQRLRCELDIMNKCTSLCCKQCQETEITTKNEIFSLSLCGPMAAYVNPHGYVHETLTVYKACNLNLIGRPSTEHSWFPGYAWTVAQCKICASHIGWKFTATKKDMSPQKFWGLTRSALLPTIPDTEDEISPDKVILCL
T1 sequence (Q16531 whole entry partner): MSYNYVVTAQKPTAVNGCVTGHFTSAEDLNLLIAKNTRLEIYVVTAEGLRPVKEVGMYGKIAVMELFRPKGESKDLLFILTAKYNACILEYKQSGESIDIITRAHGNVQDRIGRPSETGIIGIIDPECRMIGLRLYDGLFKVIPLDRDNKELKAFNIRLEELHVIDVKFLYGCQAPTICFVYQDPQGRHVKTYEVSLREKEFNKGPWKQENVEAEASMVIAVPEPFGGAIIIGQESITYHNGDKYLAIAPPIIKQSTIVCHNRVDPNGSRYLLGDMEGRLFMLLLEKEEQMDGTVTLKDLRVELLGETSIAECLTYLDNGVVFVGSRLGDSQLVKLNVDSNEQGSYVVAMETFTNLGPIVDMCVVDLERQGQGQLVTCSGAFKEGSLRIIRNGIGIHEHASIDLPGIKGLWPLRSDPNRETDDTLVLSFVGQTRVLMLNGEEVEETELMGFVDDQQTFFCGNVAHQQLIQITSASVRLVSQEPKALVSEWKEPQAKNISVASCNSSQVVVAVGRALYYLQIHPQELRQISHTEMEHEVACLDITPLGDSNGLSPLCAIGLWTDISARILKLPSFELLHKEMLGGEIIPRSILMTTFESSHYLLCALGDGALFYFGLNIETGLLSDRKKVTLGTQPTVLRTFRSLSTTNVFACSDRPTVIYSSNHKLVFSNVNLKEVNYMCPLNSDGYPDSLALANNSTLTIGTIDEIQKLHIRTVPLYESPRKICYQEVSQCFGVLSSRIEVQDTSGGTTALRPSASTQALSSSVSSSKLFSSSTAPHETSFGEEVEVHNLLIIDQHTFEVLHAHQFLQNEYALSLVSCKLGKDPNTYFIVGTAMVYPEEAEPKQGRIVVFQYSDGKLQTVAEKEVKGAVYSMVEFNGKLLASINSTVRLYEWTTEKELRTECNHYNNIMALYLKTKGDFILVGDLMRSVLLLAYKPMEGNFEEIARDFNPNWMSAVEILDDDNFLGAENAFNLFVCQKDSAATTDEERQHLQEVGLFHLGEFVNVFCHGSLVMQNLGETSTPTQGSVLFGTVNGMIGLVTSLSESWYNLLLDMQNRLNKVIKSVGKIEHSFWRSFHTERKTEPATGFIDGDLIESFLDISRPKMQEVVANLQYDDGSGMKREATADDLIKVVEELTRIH
Description: Protein lysates were run on Tris-HCl, 1 mm Criterion™ Precast gels (Bio-Rad) or NuPAGE Bis-Tris gels (Novex) gels at a constant voltage. Proteins were transferred onto Immobilon-P transfer membranes (Millipore) at a constant amperage. Before staining with primary antibodies, blots were blocked in 5% non-fat dry milk (Santa Cruz) or BSA in TBST for 30 minutes.
Secondary antibodies were HRP conjugated Bovine anti-Goat (Jackson ImmunoResearch) and HRP conjugated donkey anti-rabbit (GE Healthcare). Supersignal chemi-luminescent substrate was used for detection. For re-probing, blots were stripped in Restore Western Blot Stripping Buffer (Thermo Scientific), activated in methanol, and re-blocked.

IKZF1 and IKZF3 [2] = test: Immunoblot of IKZF1 and IKZF3 protein in multiple myeloma cells; format: cell-based, human
IKZF1 and IKZF3 [3] = test: ORF-firefly luciferase reporter assay in 293T cells; format: cell-based, human; settings: 1 μM MLN-4924
MM1S cells = test: CellTiter-Glo luminescent cell viability assay; format: cell-based, human; settings: MM1S (sensitive) versus K562 (insensitive) cells, 6 days
Description: FIGS. 2A, 2B-1, 2B-2 and 2C are provided. […] For a biological replicate SILAC labeling for the two conditions was switched.
On the respective days, total cellular ATP content was assessed using CellTiter-Glo® Luminescent Cell Viability Assay (Promega) according to the protocol. Luminescence was assessed by a multimode detector DTX880 (Beckman Coulter).

CBR1 = biological target: T2, CBR1 (Homo sapiens, UniProt P16152); test: CBR1 biochemical assays
T2 sequence (P16152 1-277): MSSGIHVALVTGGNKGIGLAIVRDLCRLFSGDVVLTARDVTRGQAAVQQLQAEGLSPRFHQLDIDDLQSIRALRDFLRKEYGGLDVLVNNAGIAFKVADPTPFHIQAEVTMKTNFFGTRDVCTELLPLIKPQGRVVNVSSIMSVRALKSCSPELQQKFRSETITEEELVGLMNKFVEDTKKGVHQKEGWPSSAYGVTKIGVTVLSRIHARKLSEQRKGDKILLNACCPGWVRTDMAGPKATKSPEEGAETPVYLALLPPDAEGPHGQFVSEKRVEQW

IKZF3 = test: Immunoblot of IKZF3 in T cells isolated from mCRBN^I391V knock-in or wild type mice; format: cell-based, mouse; settings: 0, 1 or 10 μM
Source text: IKZF3 protein levels was detected by immunoblot (IB). Actin was included as a protein loading control.

CSNK1A1 [4] = test: Immunoblot of CSNK1A1 in murine Baf3 and primary murine AML cells, with or without expressed CRBN variants; format: cell-based, mouse
Description: CSNK1A1 protein levels were assessed by immunoblot. […] Non-conserved amino acids are indicated by red bars.
Variants of human and mouse CRBN were cloned into a modified pRSF91 backbone to generate SFFV-CRBN-IRES-GFP-T2A-Puro retroviral constructs. 200,000 Ba/F3 cells were infected with ecotropic retrovirus in the presence of 2 μg/ml polybrene. After 24 hours, 1 μg/ml puromycin (Gibco) was added and cells were selected for 3-4 days. […] Protein lysates were harvested and immunoblotted for CK1α as described above.

RAB28 = biological target: T3, RAB28 (Homo sapiens, UniProt P51157); test: ORF-firefly luciferase reporter assay in 293T cells; format: cell-based; settings: 1 μM lenalidomide, 24 hours
T3 construct: expressed in transfected cells; host or cells: 293T
Description: The cDNAs of candidate genes, fused to firefly luciferase (FFluc), were expressed in 293T cells.
The luciferase reporter plasmid CMV-IRES-RenillaLUC-IRES-Gateway-FireflyLUC (11) was a kind gift from William G. Kaelin (Dana-Farber Cancer Institute). Cloning of cDNAs was performed using Gateway LR reaction (invitrogen). […] After an additional 24 hours, dual luciferase assays were performed using the Dual-Glo Luciferase Assay System (Promega) according to the manufacturer's protocol.

CSNK1A1 [5] = test: RQ-PCR of CSNK1A1 mRNA in human cells; format: cell-based
Description: Relative expression levels were calculated using the ΔΔCT method.

IRF4 = IRF4 protein and mRNA levels in MM1S cells; format: cell-based, human
Source text: FIG. 14E is a graph showing IRF4 RNA expression levels after IKZF3 knockdown.

Structure (SMILES): CC(C)C[C@@H](C=O)NC(=O)[C@H](CC(C)C)NC(=O)[C@H](CC(C)C)NC(=O)OCc1ccccc1 [MG132] (Cbz-Leu-Leu-Leu-aldehyde)
Effect on lenalidomide-induced decrease in CSNK1A1 protein levels (CSNK1A1 [1]): abrogated

Effect on lenalidomide-induced decrease in CSNK1A1 protein levels (CSNK1A1 [1]): abrogated
Structure (SMILES): NS(=O)(=O)OC[C@@H]1C[C@@H](n2ccc3c(N[C@H]4CCc5ccccc54)ncnc32)C[C@@H]1O [MLN-4924]
Effect on lenalidomide-induced decrease of endogenous IKZF1 and IKZF3 (IKZF1 and IKZF3 [2]; MM cells, 1 μM MLN-4924): prevented the lenalidomide-induced decrease
Effect on lenalidomide-induced decrease of FFluc-fused IKZF3 (IKZF1 and IKZF3 [3]): prevented the lenalidomide-induced decrease

Structure (SMILES): CCCCNC(=O)CCCNc1cccc2c1CN(C1CCC(=O)NC1=O)C2=O (stereo not drawn) [lenalidomide derivative, N-butyl-4-((2-(2,6-dioxopiperidin-3-yl)-1-oxoisoindolin-4-yl)amino)butanamide]
Biological activity / growth inhibition compared with lenalidomide (MM1S cells): retained the biological activity of lenalidomide, including selective growth inhibition of multiple myeloma cells

Structure (SMILES): Nc1cccc2c1CN(C1CCC(=O)NC1=O)C2=O (stereo not drawn) [lenalidomide]
Inhibition of CBR1 (CBR1): did not interact with CBR1 in direct binding assays or inhibit CBR1
IKZF3 degradation in T cells from wild type mice (IKZF3): No IKZF3 degradation was observed
CSNK1A1 degradation in Baf3 cells expressing mCRBN^I391V (CSNK1A1 [4]): conferred sensitivity to lenalidomide-induced degradation of CSNK1A1
CSNK1A1 protein levels in murine cells over-expressing human CRBN (CSNK1A1 [4]): sufficient to confer lenalidomide sensitivity to CSNK1A1; also recorded: reduced CSNK1A1 levels; also recorded: resulted in a decrease of CSNK1A1 protein levels
CSNK1A1 protein levels in murine Baf3 cells or primary murine (MLL-AF9) leukemia cells (CSNK1A1 [4]; unmodified cells, 24 hours): No change; also recorded: did not decrease Csnk1a1 protein levels
Luciferase level of FFluc fused to RAB28 (RAB28): not altered
Degradation of IKZF1 and IKZF3 with CRBN mutant that does not bind lenalidomide (IKZF1 and IKZF3 [2]): abrogated degradation of IKZF1 and IKZF3
CSNK1A1 mRNA / RNA expression (CSNK1A1 [5]): No significant change; also recorded: did not alter CSNK1A1 mRNA levels
IRF4 levels in proteomic analysis (IRF4; 12 hours): only slightly decreased
IRF4 mRNA and protein (IRF4; 24 hours and longer): decreased expression of IRF4; also recorded: significant decrease of IRF4 mRNA and protein
